In patent US20100317863A1, “Glucocorticoid Mimetics, Methods of Making Them, Pharmaceutical Compositions and Uses Thereof” (BOEHRINGER INGELHEIM INTERNATIONAL GMBH, priority 2007, published 2010) one finds IC50 data, which are given here for 24 compounds.

Where only a bound is given, the exact number is not on record here.

This test deals with T1, human glucocorticoid receptor (GR) complex (Homo sapiens, UniProt P04150).
T1 construct: made in house; host or cells: insect expression system (baculovirus lysate)
T1 sequence (P04150 1-777): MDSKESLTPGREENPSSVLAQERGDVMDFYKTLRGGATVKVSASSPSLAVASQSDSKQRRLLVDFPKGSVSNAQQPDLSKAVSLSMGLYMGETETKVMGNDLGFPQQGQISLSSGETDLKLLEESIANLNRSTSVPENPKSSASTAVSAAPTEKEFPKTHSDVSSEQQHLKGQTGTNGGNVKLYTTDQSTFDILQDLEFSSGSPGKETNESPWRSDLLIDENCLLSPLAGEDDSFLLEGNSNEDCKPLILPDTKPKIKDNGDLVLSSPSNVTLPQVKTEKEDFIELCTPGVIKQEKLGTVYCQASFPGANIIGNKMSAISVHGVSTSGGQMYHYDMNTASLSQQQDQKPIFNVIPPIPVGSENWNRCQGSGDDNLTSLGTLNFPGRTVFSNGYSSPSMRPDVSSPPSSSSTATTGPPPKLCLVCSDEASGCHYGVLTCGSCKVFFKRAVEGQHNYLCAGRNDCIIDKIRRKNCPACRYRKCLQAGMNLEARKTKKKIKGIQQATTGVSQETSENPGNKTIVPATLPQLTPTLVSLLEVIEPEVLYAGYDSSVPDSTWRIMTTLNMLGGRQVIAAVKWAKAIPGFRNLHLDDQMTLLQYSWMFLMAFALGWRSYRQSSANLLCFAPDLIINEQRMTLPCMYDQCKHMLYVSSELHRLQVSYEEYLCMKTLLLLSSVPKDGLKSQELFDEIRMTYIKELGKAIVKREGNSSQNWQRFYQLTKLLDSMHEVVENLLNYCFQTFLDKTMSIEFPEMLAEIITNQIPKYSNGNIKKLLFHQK
Description: Glucocorticoid Receptor Competitive Binding Assay (fluorescence polarization). As to conditions: competition with TAMRA-labeled dexamethasone; potent activity. The method, then: Compounds of the invention were evaluated for binding to the steroid receptor by a fluorescence polarization competitive binding assay. Detailed descriptions for preparation of recombinant glucocorticoid receptor (GR) complex used in the assay is described in U.S. Patent Application Publication No. US 2003/0017503, filed May 20, 2002, and incorporated herein by reference in its entirety. Preparation of the tetramethylrhodamine (TAMRA)-labeled dexamethasone probe was accomplished using a standard literature procedure (M. Pons et al., J. Steroid Biochem., 1985, 22, pp. 267-273).
This assay uses fluorescence polarization (FP) to quantitate the ability of test compounds to compete with tetramethylrhodamine (TAMRA)-labeled dexamethasone for binding to a human glucocorticoid receptor (GR) complex prepared from an insect expression system. The assay buffer was: 10 mM TES, 50 mM KCl, 20 mM Na2MoO4.2H2O, 1.5 mM EDTA, 0.04% w/v CHAPS, 10% v/v glycerol, 1 mM dithiothreitol, pH 7.4. Test compounds were dissolved to 1 mM in neat DMSO and then further diluted to 10× assay concentration in assay buffer supplemented with 10% v/v DMSO. Test compounds were serially diluted at 10× assay concentrations in 10% DMSO-containing buffer in 96-well polypropylene plates. Binding reaction mixtures were prepared in 96-well black Dynex microtiter plates by sequential addition of the following assay components to each well: 15 μL of 10× test compound solution, 85 μL of GR-containing baculovirus lysate diluted 1:170 in assay buffer, and 50 μL of 15 nM TAMRA-labeled dexamethasone. Positive controls were reaction mixtures containing no test compound; negative controls (blanks) were reaction mixtures containing 0.7 μM to 2 μM dexamethasone. The binding reactions were incubated for 1 hour at room temperature and then read for fluorescence polarization in the LJL Analyst set to 550 nm excitation and 580 nm emission, with the Rhodamine 561 dichroic mirror installed. IC50 values were determined by iterative non-linear curve fitting of the FP signal data to a 4-parameter logistic equation.
The compound `Cc1cc(C)c(S(=O)(=O)N[C@@H](C)Cn2cc(C#N)c3cc(F)ccc32)c(N)c1` [2-Amino-N—[(S)-2-(3-cyano-5-fluoroindol-1-yl)-1-methylethyl]-4,6-dimethylbenzenesulfonamide] yielded a half-inhibitory concentration (IC50) of at most 100 nM.

`Cc1cc(C)c(S(=O)(=O)N[C@H](Cn2cc(C#N)c3ccccc32)C(C)C)c(N)c1` [2-Amino-N—[(S)-1-(3-cyanoindol-1-ylmethyl)-2-methylpropyl]-4,6-dimethylbenzenesulfonamide] registered a concentration for half-maximal inhibition (IC50) of at most 100 nM. The figure for `CCC(Cn1cc(C)c2ccccc21)NS(=O)(=O)c1c(Cl)cc(Cl)cc1Cl` (stereo not drawn) [2,4,6-Trichloro-N-[1-(3-methylindol-1-ylmethyl)propyl]benzenesulfonamide] is at most 100 nM; for `CC[C@@H](Cn1cc(C)c2ccccc21)NS(=O)(=O)c1c(C)cc(C)cc1N` [2-Amino-4,6-dimethyl-N—[(S)-1-(3-methylindol-1-ylmethyl)propyl]benzenesulfonamide] it is at most 100 nM; for `Cc1cc(C)c(S(=O)(=O)NC(Cn2ccc3ccccc32)C(C)C)c(C)c1` (stereo not drawn) [N-(1-Indol-1-ylmethyl-2-methylpropyl)-2,4,6-trimethylbenzenesulfonamide] it is at most 100 nM. The figure for `Cc1cn(CC(NS(=O)(=O)c2c(N)cc(Cl)cc2Cl)C(C)C)c2ccccc12` (stereo not drawn) [2-Amino-4,6-dichloro-N-[2-methyl-1-(3-methylindol-1-ylmethyl)propyl]benzenesulfonamide] is at most 100 nM. Compound `CC[C@@H](Cc1cccc2c1ccn2C)NS(=O)(=O)c1c(C)cc(C)cc1C` [2,4,6-Trimethyl-N—[(S)-1-(1-methyl-1H-indol-4-ylmethyl)propyl]benzenesulfonamide] had an IC50 of at most 100 nM. Consider `CC[C@@H](Cn1ccc2ccccc21)NS(=O)(=O)c1c(N)cc(Cl)cc1Cl` [2-Amino-4,6-dichloro-N—((S)-1-indol-1-ylmethylpropyl)benzenesulfonamide], for which the IC50 was at most 100 nM. The figure for `Cc1cc(C)c(S(=O)(=O)N[C@@H](C)Cn2cc(C#N)c3ccccc32)c(N)c1` [2-Amino-N—[(S)-2-(3-cyanoindol-1-yl)-1-methylethyl]-4,6-dimethylbenzenesulfonamide] is at most 100 nM. The figure for `CC[C@@H](Cn1cc(C#N)c2ccccc21)NS(=O)(=O)c1c(N)cc(Cl)cc1Cl` [2-Amino-4,6-dichloro-N—[(S)-1-(3-cyanoindol-1-ylmethyl)propyl]benzenesulfonamide] is at most 100 nM; for `CC[C@@H](Cn1cc(C#N)c2cc(F)ccc21)NS(=O)(=O)c1c(C)cc(C)cc1N` [2-Amino-N—[(S)-1-(3-cyano-5-fluoroindol-1-ylmethyl)propyl]-4,6-dimethylbenzenesulfonamide] it is at most 100 nM. In the case of `Cc1cc(C)c(S(=O)(=O)N[C@@H](C)Cn2cc(CC#N)c3cccc(F)c32)c(N)c1` [2-Amino-N—[(S)-2-(3-cyanomethyl-7-fluoroindol-1-yl)-1-methylethyl]-4,6-dimethylbenzenesulfonamide] it was at most 100 nM; in that of `CC[C@@H](Cn1cc(C#N)c2ccccc21)NS(=O)(=O)c1c(C)cc(C)cc1C` [N—[(S)-1-(3-Cyanoindol-1-ylmethyl)propyl]-2,4,6-trimethylbenzenesulfonamide], at most 100 nM.

As for `CC[C@@H](Cn1cc(C(N)=O)c2cc(F)ccc21)NS(=O)(=O)c1c(Cl)cc(Br)cc1Cl` [1-[(S)-2-(4-Bromo-2,6-dichlorobenzenesulfonylamino)butyl]-5-fluoro-1H-indole-3-carboxylic acid amide], the IC50 was at most 100 nM. Turning to `Cc1cc(C)c(S(=O)(=O)N[C@H](Cn2cc(C)c3ccccc32)C(C)C)c(N)c1` [2-Amino-4,6-dimethyl-N—[(S)-2-methyl-1-(3-methylindol-1-ylmethyl)propyl]benzenesulfonamide], the 50% inhibitory concentration (IC50) is at most 100 nM. In the case of `CC[C@@H](Cn1cc(C)c2ccccc21)NS(=O)(=O)c1c(C)cc(C)cc1C` [2,4,6-Trimethyl-N—[(S)-1-(3-methylindol-1-ylmethyl)propyl]benzenesulfonamide] it was at most 100 nM; in that of `CC[C@@H](Cn1cc(-c2ccc(C)cc2)c2ccccc21)NS(=O)(=O)c1c(C)cc(C)cc1C` [2,4,6-Trimethyl-N—[(S)-1-(3-p-tolylindol-1-ylmethyl)propyl]benzenesulfonamide], at most 100 nM.

`CC[C@@H](CN1CCCc2cc(C#N)ccc21)NS(=O)(=O)c1c(C)cc(C)cc1C` [N—[(S)-1-(6-Cyano-3,4-dihydro-2H-quinolin-1-ylmethyl)propyl]-2,4,6-trimethylbenzenesulfonamide] displayed an IC50 of at most 100 nM.

As to `CC[C@@H](Cn1cc(-c2cccnc2)c2ccccc21)NS(=O)(=O)c1c(C)cc(C)cc1C` [2,4,6-Trimethyl-N—[(S)-1-(3-pyridin-3-ylindol-1-ylmethyl)propyl]benzenesulfonamide], the half-inhibitory concentration (IC50) was at most 100 nM. In the case of `CC[C@@H](Cn1cc(Br)c2cccnc21)NS(=O)(=O)c1c(C)cc(C)cc1C` [N—[(S)-1-(3-Bromopyrrolo[2,3-b]pyridin-1-ylmethyl)propyl]-2,4,6-trimethylbenzenesulfonamide] it was at most 100 nM; in that of `CC[C@@H](Cn1cc(C#N)c2cccc(F)c21)N(C)S(=O)(=O)c1c(C)cc(C)cc1N` [2-Amino-N—[(S)-1-(3-cyano-7-fluoroindol-1-ylmethyl)propyl]-4,6,N-trimethylbenzenesulfonamide], at most 100 nM. In the case of `Cc1cc(C)c(S(=O)(=O)NC(CN2CCCc3ccccc32)C(C)C)c(C)c1` (stereo not drawn) [N-[1-(3,4-Dihydro-2H-quinolin-1-ylmethyl)-2-methylpropyl]-2,4,6-trimethylbenzenesulfonamide] it was at most 100 nM; in that of `Cc1cn(C[C@@H](NS(=O)(=O)c2c(N)cc(Cl)cc2Cl)C(C)C)c2ccccc12` [2-Amino-4,6-dichloro-N—[(S)-2-methyl-1-(3-methylindol-1-ylmethyl)propyl]benzenesulfonamide], at most 100 nM.

`CC[C@@H](Cn1cc(C=O)c2cc(F)ccc21)NS(=O)(=O)c1c(C)cc(C)cc1C` [N—[(S)-1-(5-Fluoro-3-formylindol-1-ylmethyl)propyl]-2,4,6-trimethylbenzenesulfonamide] returned a 50% inhibitory concentration (IC50) of at most 100 nM.
